Here are results for four molecules from PubChem BioAssay AID1259407 (Chemical Carcinogenesis Research Information System (CCRIS), 2018).

Active and inactive are the calls of the source. How the calls were made is not given here.

This data set concerns CCRIS mutagenicity, Ames/micronucleus/aberration tests. Put plainly: CCRIS mutagenicity studies.
Setting [1] is: Test System: AMES SALMONELLA TYPHIMURIUM, Strain/Indicator: TA98, Metabolic Activation: NONE, Method: STANDARD PLATE.
Where [2] appears, read: Test System: AMES SALMONELLA TYPHIMURIUM, Strain/Indicator: TA98, Metabolic Activation: RAT, LIVER, S-9, AROCLOR 1254, Method: STANDARD PLATE.
[3] abbreviates: Test System: AMES SALMONELLA TYPHIMURIUM, Strain/Indicator: TA100, Metabolic Activation: NONE, Method: STANDARD PLATE.
[4] abbreviates: Test System: AMES SALMONELLA TYPHIMURIUM, Strain/Indicator: TA100, Metabolic Activation: RAT, LIVER, S-9, AROCLOR 1254, Method: STANDARD PLATE.

In the case of `C=C(C)C(C)=O`, the mutagenic call reads like this: (Test System: AMES SALMONELLA TYPHIMURIUM, Strain/Indicator: TA98, Metabolic Activation: HAMSTER, LIVER, S-9, AROCLOR 1254, Method: STANDARD PLATE) “inactive; negative”; under setting [1], “inactive; negative”; under setting [2], “inactive; negative”; (Test System: AMES SALMONELLA TYPHIMURIUM, Strain/Indicator: TA100, Metabolic Activation: HAMSTER, LIVER, S-9, AROCLOR 1254, Method: STANDARD PLATE) “inactive; negative”; under setting [3], “inactive; negative”; under setting [4], “inactive; negative”. Also, the mutagenic call reads like this: (Test System: AMES SALMONELLA TYPHIMURIUM, Strain/Indicator: TA1535, Metabolic Activation: HAMSTER, LIVER, S-9, AROCLOR 1254, Method: STANDARD PLATE) “inactive; negative”; (Test System: AMES SALMONELLA TYPHIMURIUM, Strain/Indicator: TA1535, Metabolic Activation: NONE, Method: STANDARD PLATE) “inactive; negative”; (Test System: AMES SALMONELLA TYPHIMURIUM, Strain/Indicator: TA1535, Metabolic Activation: RAT, LIVER, S-9, AROCLOR 1254, Method: STANDARD PLATE) “inactive; negative”; (Test System: AMES SALMONELLA TYPHIMURIUM, Strain/Indicator: TA1537, Metabolic Activation: HAMSTER, LIVER, S-9, AROCLOR 1254, Method: STANDARD PLATE) “inactive; negative”; (Test System: AMES SALMONELLA TYPHIMURIUM, Strain/Indicator: TA1537, Metabolic Activation: NONE, Method: STANDARD PLATE) “inactive; negative”; (Test System: AMES SALMONELLA TYPHIMURIUM, Strain/Indicator: TA1537, Metabolic Activation: RAT, LIVER, S-9, AROCLOR 1254, Method: STANDARD PLATE) “inactive; negative”. Further, the mutagenic call is, setting by setting: (Test System: AMES SALMONELLA TYPHIMURIUM, Strain/Indicator: TA1538, Metabolic Activation: HAMSTER, LIVER, S-9, AROCLOR 1254, Method: STANDARD PLATE) “inactive; negative”; (Test System: AMES SALMONELLA TYPHIMURIUM, Strain/Indicator: TA1538, Metabolic Activation: NONE, Method: STANDARD PLATE) “inactive; negative”; (Test System: AMES SALMONELLA TYPHIMURIUM, Strain/Indicator: TA1538, Metabolic Activation: RAT, LIVER, S-9, AROCLOR 1254, Method: STANDARD PLATE) “inactive; negative”; (Test System: Mouse lymphoma, Strain/Indicator: L5178Y (tk+/tk-), Metabolic Activation: None, Method: Suspension/plate) “active; positive”; (Test System: Mouse lymphoma, Strain/Indicator: L5178Y (tk+/tk-), Metabolic Activation: Rat, Liver, S-9, Aroclor 1254, Method: Suspension/plate) “active; positive”.
With `N[C@@H](CS/C(Cl)=C(\Cl)C(Cl)(Cl)Cl)C(=O)O`, the mutagenic call (Test System: AMES SALMONELLA TYPHIMURIUM, Strain/Indicator: TA100, Metabolic Activation: NONE, Method: PREINCUBATION) was “active; positive” and the mutagenic call (Test System: AMES SALMONELLA TYPHIMURIUM, Strain/Indicator: TA100, Metabolic Activation: RAT, LIVER OR KIDNEY, MICROSOMES, Method: PREINCUBATION) is “active; positive”.
For the molecule `CC(=O)N(O)c1ccc2ccccc2c1`, the mutagenic call (Test System: AMES SALMONELLA TYPHIMURIUM, Strain/Indicator: TA98, Metabolic Activation: NONE, Method: PREINCUBATION) is “inactive; negative”; the mutagenic call (Test System: AMES SALMONELLA TYPHIMURIUM, Strain/Indicator: TA98, Metabolic Activation: RAT, LIVER, CYTOSOL, Method: PREINCUBATION) is “inactive; negative”; the mutagenic call (Test System: AMES SALMONELLA TYPHIMURIUM, Strain/Indicator: TA98, Metabolic Activation: RAT, LIVER, MICROSOMES, Method: PREINCUBATION) was “active; positive”.
On to `NC(=O)CCC(=O)Nc1ccc(Cl)c(Cl)c1`, for which the mutagenic call is “inactive; negative” under setting [1], “inactive; negative” under setting [2], “inactive; negative” under setting [3] and “inactive; negative” under setting [4].
